Calls of active or inactive are those of the source. The rule behind the calls is not given here.
Legend:
[1] = target: T1, ATP-dependent translocase ABCB1 (Homo sapiens, UniProt P08183); assay: Inhibition of P-glycoprotein-mediated drug efflux in human NCI/ADR-RES cells assessed as paclitaxel accumulation after 30 mins by HPLC; assay type: cell-based; conditions: 0.5 h
NCI/ADR-RES [2] = assay: Potentiation of vinblastine-induced cytotoxicity against P-gp expressing human NCI/ADR-RES cells assessed as reduction of vinblastine CC50 at 10 uM after 3 days by MTT assay; assay type: functional
[3] = target: T1, ATP-dependent translocase ABCB1; assay: Inhibition of P-glycoprotein-mediated drug efflux in human NCI/ADR-RES cells assessed as calcein AM accumulation after 30 mins by fluorescence spectrophotometry; assay type: cell-based; conditions: 0.5 h
NCI/ADR-RES [4] = assay: Potentiation of paclitaxel-induced cytotoxicity against P-gp expressing human NCI/ADR-RES cells assessed as reduction of paclitaxel CC50 at 10 uM after 3 days by MTT assay; assay type: functional
NCI/ADR-RES [5] = assay: Cytotoxicity against human NCI/ADR-RES cells at 10 uM after 3 days by MTT assay; assay type: functional, cell-based

T1 sequence (P08183 whole entry): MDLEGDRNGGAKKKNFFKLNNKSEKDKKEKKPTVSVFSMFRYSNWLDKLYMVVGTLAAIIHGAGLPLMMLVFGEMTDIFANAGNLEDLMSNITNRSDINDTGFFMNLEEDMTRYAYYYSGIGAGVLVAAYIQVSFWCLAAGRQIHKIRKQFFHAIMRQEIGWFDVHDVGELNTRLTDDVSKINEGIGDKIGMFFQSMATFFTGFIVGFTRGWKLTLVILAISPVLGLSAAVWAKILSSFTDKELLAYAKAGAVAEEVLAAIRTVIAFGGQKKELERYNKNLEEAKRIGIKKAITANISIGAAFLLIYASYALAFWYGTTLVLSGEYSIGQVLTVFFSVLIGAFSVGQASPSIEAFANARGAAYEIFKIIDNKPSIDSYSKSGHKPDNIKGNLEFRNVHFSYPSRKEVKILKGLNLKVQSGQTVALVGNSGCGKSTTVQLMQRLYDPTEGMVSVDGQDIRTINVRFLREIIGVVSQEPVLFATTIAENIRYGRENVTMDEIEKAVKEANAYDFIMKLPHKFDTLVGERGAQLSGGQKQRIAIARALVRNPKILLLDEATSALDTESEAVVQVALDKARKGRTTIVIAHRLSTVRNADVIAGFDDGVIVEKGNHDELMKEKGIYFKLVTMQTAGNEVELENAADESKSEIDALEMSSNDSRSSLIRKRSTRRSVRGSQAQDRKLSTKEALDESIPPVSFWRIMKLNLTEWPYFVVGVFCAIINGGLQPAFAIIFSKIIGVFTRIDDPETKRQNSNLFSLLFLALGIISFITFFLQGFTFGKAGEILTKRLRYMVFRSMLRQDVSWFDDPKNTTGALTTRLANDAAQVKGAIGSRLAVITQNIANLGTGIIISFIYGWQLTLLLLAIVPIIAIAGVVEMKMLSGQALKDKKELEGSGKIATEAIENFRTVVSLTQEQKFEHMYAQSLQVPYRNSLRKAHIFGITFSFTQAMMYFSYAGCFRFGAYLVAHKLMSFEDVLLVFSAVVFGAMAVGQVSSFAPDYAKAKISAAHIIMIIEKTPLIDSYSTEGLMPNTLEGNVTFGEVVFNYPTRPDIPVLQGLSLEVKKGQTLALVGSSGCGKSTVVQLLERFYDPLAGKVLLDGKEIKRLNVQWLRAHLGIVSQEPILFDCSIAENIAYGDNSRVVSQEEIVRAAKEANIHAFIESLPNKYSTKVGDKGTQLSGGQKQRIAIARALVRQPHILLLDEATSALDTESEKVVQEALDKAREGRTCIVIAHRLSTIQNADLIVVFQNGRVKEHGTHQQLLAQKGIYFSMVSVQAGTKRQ

inhibition (INH) [1]: Dose-dependent effect
inhibition (INH) [3]: Dose-dependent effect
Compound: COc1c(O)cc2oc(-c3ccccc3)cc(=O)c2c1O [OROXYLIN A]
fold change (FC) (NCI/ADR-RES [2]): 5
fold change (FC) (NCI/ADR-RES [4]): 5
Activity (NCI/ADR-RES [5]): inactive
